From PubChem BioAssay (NCI)
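Values below derive from 48-hour exposures of cells grown in 96-well plates, with endpoints linearly interpolated between the two concentrations bracketing the appropriate inhibition level. TGI denotes the concentration required for complete inhibition of growth.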

Legend:
Experiment in all cases: NCI tumour cell line growth inhibition, 48 h
KM20L2 colon = test system: KM20L2 colon
HOP-92 NSCLC = test system: HOP-92 NSCLC
SR leukemia = test system: SR leukemia
SK-OV-3 ovarian = test system: SK-OV-3 ovarian
HL-60(TB) leukemia = test system: HL-60(TB) leukemia
A498 renal = test system: A498 renal
A549 NSCLC = test system: A549 NSCLC
XF 498 CNS = test system: XF 498 CNS
TK-10 renal = test system: TK-10 renal
MOLT-4 leukemia = test system: MOLT-4 leukemia
SK-MEL-2 melanoma = test system: SK-MEL-2 melanoma
OVCAR-3 ovarian = test system: OVCAR-3 ovarian
SF-295 CNS = test system: SF-295 CNS
RPMI-8226 leukemia = test system: RPMI-8226 leukemia
M14 melanoma = test system: M14 melanoma
CCRF-CEM leukemia = test system: CCRF-CEM leukemia
COLO 205 colon = test system: COLO 205 colon
UACC-257 melanoma = test system: UACC-257 melanoma
UO-31 renal = test system: UO-31 renal
HCC-2998 colon = test system: HCC-2998 colon
LXFL 529 NSCLC = test system: LXFL 529 NSCLC
CAKI-1 renal = test system: CAKI-1 renal
SF-268 CNS = test system: SF-268 CNS
SN12C renal = test system: SN12C renal
DLD-1 colon = test system: DLD-1 colon
OVCAR-4 ovarian = test system: OVCAR-4 ovarian
SW-620 colon = test system: SW-620 colon
OVCAR-5 ovarian = test system: OVCAR-5 ovarian
HCT-116 colon = test system: HCT-116 colon
KM12 colon = test system: KM12 colon
SK-MEL-28 melanoma = test system: SK-MEL-28 melanoma
NCI-H522 lung = test system: NCI-H522 lung
NCI-H226 lung = test system: NCI-H226 lung
OVCAR-8 ovarian = test system: OVCAR-8 ovarian
M19-MEL melanoma = test system: M19-MEL melanoma
SNB-78 CNS = test system: SNB-78 CNS
NCI-H460 lung = test system: NCI-H460 lung
UACC-62 melanoma = test system: UACC-62 melanoma
U251 CNS = test system: U251 CNS
NCI-H23 lung = test system: NCI-H23 lung
MALME-3M melanoma = test system: MALME-3M melanoma
SNB-75 CNS = test system: SNB-75 CNS
786-0 renal = test system: 786-0 renal
SNB-19 CNS = test system: SNB-19 CNS
HT29 colon = test system: HT29 colon
ACHN renal = test system: ACHN renal
EKVX NSCLC = test system: EKVX NSCLC
K-562 leukemia = test system: K-562 leukemia
HOP-62 NSCLC = test system: HOP-62 NSCLC
DMS 114 small cell lung = test system: DMS 114 small cell lung
DMS 273 small cell lung = test system: DMS 273 small cell lung
IGROV1 ovarian = test system: IGROV1 ovarian
RXF 393 renal = test system: RXF 393 renal
SK-MEL-5 melanoma = test system: SK-MEL-5 melanoma
SF-539 CNS = test system: SF-539 CNS
HCT-15 colon = test system: HCT-15 colon
LOX IMVI melanoma = test system: LOX IMVI melanoma

Measured: TGI

COc1cc(Br)c(CC2NCCc3cc(OC)c(OC)cc32)cc1OC (stereo not given)
not listed: DMS 114 small cell lung | DMS 273 small cell lung | IGROV1 ovarian | RXF 393 renal | SK-MEL-5 melanoma | SF-539 CNS | HCT-15 colon | LOX IMVI melanoma
> 100 µM: all other assays above

COC(=O)c1nc(-c2ccc(Cl)c(Cl)c2)nc2ccc(Cl)cc12
37.7 µM: HOP-92 NSCLC
73 µM: 786-0 renal
63.5 µM: RXF 393 renal
84.1 µM: SF-539 CNS
43.1 µM: SK-OV-3 ovarian
51.3 µM: SNB-75 CNS
not listed: XF 498 CNS | MOLT-4 leukemia | OVCAR-3 ovarian | M14 melanoma | CCRF-CEM leukemia | CAKI-1 renal | OVCAR-4 ovarian | NCI-H522 lung | NCI-H226 lung | K-562 leukemia | HOP-62 NSCLC | HCT-15 colon | LOX IMVI melanoma
> 100 µM: all other assays above

CC(SC(=S)Nc1cccc(F)c1)C(=O)O (stereo not given)
52.3 µM: NCI-H23 lung
32.1 µM: SK-MEL-28 melanoma
38.9 µM: K-562 leukemia
99.6 µM: SNB-19 CNS
38 µM: SF-539 CNS
34.9 µM: NCI-H522 lung
77 µM: A498 renal
59.6 µM: HOP-62 NSCLC
55.3 µM: CCRF-CEM leukemia
32.4 µM: LOX IMVI melanoma
68 µM: NCI-H460 lung
76 µM: OVCAR-8 ovarian
31.7 µM: DMS 114 small cell lung
11 µM: IGROV1 ovarian
52.7 µM: SF-295 CNS
74.5 µM: UO-31 renal
24.5 µM: DMS 273 small cell lung
84.9 µM: U251 CNS
35 µM: M14 melanoma
34.3 µM: RPMI-8226 leukemia
37.6 µM: HCT-116 colon
83.7 µM: HCT-15 colon
69.1 µM: LXFL 529 NSCLC
36.4 µM: UACC-62 melanoma
30.8 µM: SR leukemia
46.5 µM: MOLT-4 leukemia | SK-MEL-2 melanoma
29.4 µM: HL-60(TB) leukemia
29.1 µM: RXF 393 renal
32.6 µM: SF-268 CNS
44.3 µM: NCI-H226 lung
33.5 µM: UACC-257 melanoma
90.8 µM: KM20L2 colon
not listed: HOP-92 NSCLC | SK-OV-3 ovarian | XF 498 CNS | COLO 205 colon | DLD-1 colon | KM12 colon | M19-MEL melanoma | MALME-3M melanoma | SNB-75 CNS | SK-MEL-5 melanoma
> 100 µM: all other assays above
